The text below walks through data of ChEMBL document CHEMBL5223107 (Bioorg Med Chem Lett, 2022).

Molecules are shown by their SMILES. Activity calls are given as the source filed them. The calls are words filed in the database; no cut-off is given here.

One assay relates to CWR22R. Put plainly: Antiproliferative activity against human 22Rv1 cells assessed as cell growth inhibition incubated for 72 hrs by MTT assay. The assay is classed as functional, cell-based. Conditions: 22Rv1, 72 h. For orientation: Tetrazolium dyes change colour on reduction, which living cells bring about.
The target of assay [1] is T1, Androgen receptor (Homo sapiens) (UniProt P10275).
T1 sequence (whole entry): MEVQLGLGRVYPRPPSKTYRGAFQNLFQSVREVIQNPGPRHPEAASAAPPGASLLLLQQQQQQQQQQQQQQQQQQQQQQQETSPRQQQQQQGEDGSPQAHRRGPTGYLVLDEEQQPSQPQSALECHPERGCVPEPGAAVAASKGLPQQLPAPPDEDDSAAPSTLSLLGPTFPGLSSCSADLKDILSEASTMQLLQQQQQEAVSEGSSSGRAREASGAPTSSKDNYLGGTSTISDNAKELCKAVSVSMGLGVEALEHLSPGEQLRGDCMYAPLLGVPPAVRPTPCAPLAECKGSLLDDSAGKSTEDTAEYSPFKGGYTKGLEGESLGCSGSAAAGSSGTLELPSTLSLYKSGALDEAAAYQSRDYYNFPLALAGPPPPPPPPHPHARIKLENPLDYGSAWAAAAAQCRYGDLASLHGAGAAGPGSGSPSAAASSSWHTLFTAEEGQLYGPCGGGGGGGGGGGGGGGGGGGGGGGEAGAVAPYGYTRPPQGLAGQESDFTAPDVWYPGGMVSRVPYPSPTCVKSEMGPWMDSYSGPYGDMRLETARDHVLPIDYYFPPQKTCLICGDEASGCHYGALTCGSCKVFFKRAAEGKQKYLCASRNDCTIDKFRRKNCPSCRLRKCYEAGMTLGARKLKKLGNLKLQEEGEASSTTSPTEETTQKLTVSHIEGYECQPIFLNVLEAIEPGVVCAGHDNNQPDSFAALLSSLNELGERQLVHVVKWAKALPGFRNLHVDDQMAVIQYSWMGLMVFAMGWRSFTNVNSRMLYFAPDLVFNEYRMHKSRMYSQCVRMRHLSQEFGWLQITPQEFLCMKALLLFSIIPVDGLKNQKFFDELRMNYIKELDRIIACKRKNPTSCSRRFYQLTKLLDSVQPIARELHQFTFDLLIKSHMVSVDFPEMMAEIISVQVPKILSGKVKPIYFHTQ
Kind of assay: Inhibition of androgen receptor in human 22Rv1 cells assessed as reduction in […] expression level at 1 to 10 uM incubated for 24 hrs by western blot analysis. The class given is cell-based. The note with it: dose 1-10 µM.

The target in assay [2] is T1, Androgen receptor (Homo sapiens). Put plainly: Inhibition of androgen receptor in human 22Rv1 cells assessed as reduction in DHT-induced PSA mRNA expression level at 1 to 5 uM incubated for 24 hrs by qRT-PCR analysis. The class given is cell-based. Conditions: dose 1-5 µM. In general terms: Real-time PCR tracks product formation cycle by cycle.
The next assay concerns PC-3. Kind of assay: Antiproliferative activity against human PC-3 cells assessed as cell growth inhibition incubated for 72 hrs by MTT assay. The assay is classed as functional, cell-based. Conditions: PC-3, 72 h.
The target in assay [3] is T1, Androgen receptor (Homo sapiens). Put plainly: Inhibition of androgen receptor in human LNCaP cells assessed as reduction in DHT-induced PSA mRNA expression level at 1 to 5 uM incubated for 24 hrs by qRT-PCR analysis. The assay is classed as cell-based. Conditions: dose 1-5 µM.
Assay [4] has the same target. Put plainly: Inhibition of androgen receptor in human LNCaP cells assessed as reduction in DHT-induced AR expression level at 1 to 5 uM incubated for 24 hrs by western blot analysis. The note with it: dose 1-5 µM. The class given is cell-based. (In western blotting, separated proteins are transferred to a membrane and probed.)
The target is the same in assay [5]. Kind of assay: Inhibition of androgen receptor in human 22Rv1 cells assessed as reduction in DHT-induced AR expression level at 1 to 5 uM incubated for 24 hrs by western blot analysis. The note with it: dose 1-5 µM. The assay is classed as cell-based.
For the next assay, the system named is LNCaP. Kind of assay: Antiproliferative activity against human LNCaP cells assessed as cell growth inhibition incubated for 72 hrs by MTT assay. The assay is classed as functional, cell-based.
For assay [6], the target named is T1, Androgen receptor (Homo sapiens). Kind of assay: Inhibition of androgen receptor in human LNCaP cells assessed as reduction in DHT-induced PSA level at 1 to 5 uM incubated for 24 hrs by western blot analysis. The assay is classed as cell-based. The note with it: dose 1-5 µM.
Assay [7] has the same target. Kind of assay: Inhibition of androgen receptor in human PC-3 cells assessed as inhibition of AR transcription activity by dual-luciferase reporter assays. The class given is cell-based.
For assay [8] the target is unchanged. Put plainly: Inhibition of androgen receptor in human 22Rv1 cells assessed as reduction in DHT-induced PSA level at 1 to 5 uM incubated for 24 hrs by western blot analysis. The assay is classed as cell-based. The note with it: dose 1-5 µM.
For assay [9] the target is unchanged. Kind of assay: Inhibition of androgen receptor in human 22Rv1 cells assessed as reduction in DHT-induced AR mRNA expression level at 1 to 5 uM incubated for 24 hrs by qRT-PCR analysis. The class given is cell-based. Conditions: dose 1-5 µM.
The target is the same in assay [10]. Kind of assay: Inhibition of androgen receptor in human 22Rv1 cells assessed as reduction in BCL-2 expression level at 1 to 10 uM incubated for 24 hrs by western blot analysis. The assay is classed as cell-based. Conditions: dose 1-10 µM.
The target is the same in assay [11]. Put plainly: Inhibition of androgen receptor in human LNCaP cells assessed as reduction in DHT-induced AR mRNA expression level at 1 to 5 uM incubated for 24 hrs by qRT-PCR analysis. The note with it: dose 1-5 µM. The class given is cell-based.
For another assay, the target named is T2, Androgen receptor (Homo sapiens, UniProt P10275).
T2 sequence (P10275 whole entry): T1 sequence (whole entry)
Put plainly: Inhibition of androgen receptor in human LNCaP cells assessed as inhibition of AR transcription activity by dual-luciferase reporter assays. The assay is classed as cell-based.

As to `CNC(=O)c1ccc(N2C(=S)N(c3ccc(C#N)c(C(F)(F)F)c3)C(=O)C2(C)C)cc1F` [ENZALUTAMIDE], in the assay on CWR22R, the IC50 (usually the concentration at which inhibition is half-maximal) amounted to 46.3 µM.

For `CC1=CC2C(C(C)C)=C(O)C(=O)/C(=C\NCCS(=O)(=O)O)C2C(O)=C1c1c(C)cc2c(c1O)/C(=C/NCCS(=O)(=O)O)C(=O)C(O)=C2C(C)C` (centres undefined), the inhibition result in assay [1], in [5], in assay [8] and in [10] was “Active” throughout. The inhibition result in [2], in assay [3], in assay [4], in assay [6], in assay [7] and in [9] was “Dose-Dependent Effect” throughout. Further, the inhibition entry in [11] is “Dose-Dependent Effect”. The results for the 50% inhibitory concentration (IC50) in the assay on PC-3, with CWR22R and in the assay on LNCaP were 3.16 µM, 0.91 µM and 350 nM, respectively.

As to `Cc1c(O)c(O)c(C=O)c(COCc2ccccc2)c1-c1ccc(Br)c(F)c1`, the IC50 on Androgen receptor stood at 2.19 µM.

Take `C#CCOCc1c(C=O)c(O)c(O)c(C)c1-c1ccccc1`: on Androgen receptor, the IC50 was above 5 µM.

Take `COc1ccccc1COCc1c(C=O)c(O)c(O)c(C)c1-c1ccccc1`: on Androgen receptor, the IC50 was above 5 µM.

Take `CC(C)c1cc(COCc2ccccc2)c(C=O)c(O)c1O`: the concentration for half-maximal inhibition (IC50) on Androgen receptor was above 5 µM.

Consider `Cc1c(O)c(O)c(C=O)c(COCc2cccc3ccccc23)c1-c1ccccc1`, for which the IC50 on Androgen receptor was above 5 µM.

Regarding `Cc1ccc(F)cc1-c1c(C)c(O)c(O)c(C=O)c1COCc1ccccc1`, the IC50 at Androgen receptor was above 5 µM.

`Cc1c(O)c(O)c(C=O)c2c1[C@@H](c1ccc(C(=O)O[C@H]3CC[C@@]4(C)C(=CC[C@H]5[C@@H]6CC[C@H]([C@H](C)CCCC(C)C)[C@@]6(C)CC[C@@H]54)C3)cc1)CC2`: at Androgen receptor, the concentration for half-maximal inhibition (IC50) was above 5 µM.

As for `Cc1c(O)c(O)c(C=O)c(CO[C@H]2CC[C@@]3(C)C(=CC[C@@H]4[C@@H]3CC[C@]3(C)C(=O)CC[C@@H]43)C2)c1-c1ccccc1`, the half-inhibitory concentration (IC50) at Androgen receptor stood at 3.22 µM.

With `Cc1c(O)c(O)c(C=O)c(COCc2ccccc2)c1-c1ccccc1C#N`, the half-inhibitory concentration (IC50) at Androgen receptor is above 5 µM.
